According to article PMC5451006, “Inhibition of insect olfactory behavior by an airborne antagonist of the insect odorant receptor co-receptor subunit” (PLoS ONE, 2017):

How the values were obtained:
Assay type in all cases: cell-based
[1] = biological target: T1, Dmel\Orco+Dmel\Or35a (Drosophila melanogaster, UniProt Q9VNB5); experiment: two-electrode voltage clamp, Xenopus oocytes, concentration-inhibition
T1 construct: heteromeric OR, cRNAs co-expressed in Xenopus laevis oocytes; stoichiometry unknown; with Odorant receptor 35a
T1 sequence (Q9VNB5 1-486): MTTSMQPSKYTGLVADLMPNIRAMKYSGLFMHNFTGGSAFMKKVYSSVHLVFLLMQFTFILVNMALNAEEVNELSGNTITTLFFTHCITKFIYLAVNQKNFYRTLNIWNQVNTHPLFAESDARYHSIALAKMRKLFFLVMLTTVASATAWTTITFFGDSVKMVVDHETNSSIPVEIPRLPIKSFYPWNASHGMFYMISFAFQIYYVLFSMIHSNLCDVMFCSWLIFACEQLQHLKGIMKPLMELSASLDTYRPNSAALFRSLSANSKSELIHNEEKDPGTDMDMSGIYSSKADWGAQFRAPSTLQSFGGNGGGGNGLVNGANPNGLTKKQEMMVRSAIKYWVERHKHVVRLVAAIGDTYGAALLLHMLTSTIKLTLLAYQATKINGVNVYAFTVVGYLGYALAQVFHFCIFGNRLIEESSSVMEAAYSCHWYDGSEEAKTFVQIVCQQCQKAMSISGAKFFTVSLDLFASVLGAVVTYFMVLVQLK
T1 sequence (Q9V3Q2 1-409 partner): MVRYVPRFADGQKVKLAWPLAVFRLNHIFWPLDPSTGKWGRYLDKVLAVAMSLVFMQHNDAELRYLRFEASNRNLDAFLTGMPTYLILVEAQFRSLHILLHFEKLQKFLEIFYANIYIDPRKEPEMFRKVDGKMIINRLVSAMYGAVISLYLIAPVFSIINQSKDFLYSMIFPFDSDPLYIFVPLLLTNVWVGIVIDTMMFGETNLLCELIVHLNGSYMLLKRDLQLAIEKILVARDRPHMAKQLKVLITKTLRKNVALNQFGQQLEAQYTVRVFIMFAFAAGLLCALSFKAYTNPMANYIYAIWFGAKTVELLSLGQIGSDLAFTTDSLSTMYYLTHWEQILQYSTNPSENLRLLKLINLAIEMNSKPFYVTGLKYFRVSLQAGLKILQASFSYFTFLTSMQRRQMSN

[2] = biological target: T2, Cqui\Orco+Cqui\Or21 (Culex quinquefasciatus, UniProt Z9TAD8G4U6); experiment: as above; conditions: antagonist vs 3 μM OLC12 (Orco agonist), -70 mV, pH 7.4, 90 sec pre-application
T2 construct: heteromeric OR, cRNAs from pGEMHE co-expressed in Xenopus laevis oocytes; stoichiometry unknown; with Odorant receptor 21
T2 sequence (Z9TAD8G4U6 1-480): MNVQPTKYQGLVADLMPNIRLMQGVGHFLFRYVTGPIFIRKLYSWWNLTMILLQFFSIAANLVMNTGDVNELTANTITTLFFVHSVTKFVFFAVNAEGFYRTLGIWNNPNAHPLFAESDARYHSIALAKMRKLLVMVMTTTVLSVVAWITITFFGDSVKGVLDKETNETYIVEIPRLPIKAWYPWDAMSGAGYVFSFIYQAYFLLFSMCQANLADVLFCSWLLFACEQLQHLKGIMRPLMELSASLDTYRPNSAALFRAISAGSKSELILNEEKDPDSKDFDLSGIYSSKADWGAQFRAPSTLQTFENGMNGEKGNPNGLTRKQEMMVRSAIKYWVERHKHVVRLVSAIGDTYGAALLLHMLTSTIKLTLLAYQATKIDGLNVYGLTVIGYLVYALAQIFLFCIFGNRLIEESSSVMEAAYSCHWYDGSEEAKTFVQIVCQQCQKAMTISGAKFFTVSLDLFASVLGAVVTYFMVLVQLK

[3] = biological target: T3, Agam\Orco+Agam\Or39 (Anopheles gambiae, UniProt Q7QCC7); experiment: two-electrode voltage clamp, Xenopus oocytes, single concentration; conditions: antagonist vs 10 μM 6-methyl-5-hepten-2-one (EC50 concentration); allosteric via Orco; pH 7.4, -70 mV
T3 construct: heteromeric OR co-expressed in Xenopus laevis oocytes; stoichiometry unknown; with Odorant receptor 39
T3 sequence (Q7QCC7 1-478): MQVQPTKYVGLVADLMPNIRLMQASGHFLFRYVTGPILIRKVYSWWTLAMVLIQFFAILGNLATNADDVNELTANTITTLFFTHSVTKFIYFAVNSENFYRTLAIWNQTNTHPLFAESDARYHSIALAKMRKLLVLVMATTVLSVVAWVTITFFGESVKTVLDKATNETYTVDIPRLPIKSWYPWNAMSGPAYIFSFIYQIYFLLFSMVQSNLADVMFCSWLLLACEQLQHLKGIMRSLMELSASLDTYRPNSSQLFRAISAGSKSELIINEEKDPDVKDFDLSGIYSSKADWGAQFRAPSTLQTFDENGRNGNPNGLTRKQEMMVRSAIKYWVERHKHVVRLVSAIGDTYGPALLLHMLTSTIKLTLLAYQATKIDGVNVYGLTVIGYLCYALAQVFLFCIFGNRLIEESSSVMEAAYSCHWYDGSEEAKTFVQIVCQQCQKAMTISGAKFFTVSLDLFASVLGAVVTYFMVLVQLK

[4] = biological target: T4, Agam\Orco (Anopheles gambiae, UniProt Q7QCC7); experiment: as above; conditions: antagonist vs 30 μM OLC12; homomeric Orco; pH 7.4, -70 mV
T4 construct: homomeric Orco channel, expressed alone in Xenopus laevis oocytes
T4 sequence (Q7QCC7 1-478): T3 sequence (Q7QCC7 1-478)
Text: two-electrode voltage clamp, Xenopus oocytes, single concentration on Agam\Orco | OX1w inhibition of homomeric Orco channels. Oocytes expressing Dmel\Orco, Cqui\Orco or Agam\Orco

[5] = biological target: T5, Cqui\Orco (Culex quinquefasciatus, UniProt Z9TAD8G4U6); experiment: as above; conditions: antagonist vs 30 μM OLC12; homomeric Orco; pH 7.4, -70 mV
T5 construct: homomeric Orco channel, expressed alone in Xenopus laevis oocytes
T5 sequence (Z9TAD8G4U6 1-480): T2 sequence (Z9TAD8G4U6 1-480)
Text: two-electrode voltage clamp, Xenopus oocytes, single concentration on Cqui\Orco | OX1w inhibition of homomeric Orco channels. Oocytes expressing Dmel\Orco, Cqui\Orco or Agam\Orco

[6] = biological target: T6, Agam\Orco+Agam\Or31 (Anopheles gambiae, UniProt Q7QCC7); experiment: as above; conditions: antagonist vs 70 μM geranyl acetate (EC50 concentration); allosteric via Orco; pH 7.4, -70 mV
T6 construct: heteromeric OR co-expressed in Xenopus laevis oocytes; stoichiometry unknown; with Odorant receptor 31
T6 sequence (Q7QCC7 1-478): T3 sequence (Q7QCC7 1-478)

[7] = biological target: T7, Agam\Orco+Agam\Or65 (Anopheles gambiae, UniProt Q7QCC7); experiment: as above; conditions: antagonist vs 100 nM eugenol (EC50 concentration); allosteric via Orco; pH 7.4, -70 mV
T7 construct: heteromeric OR co-expressed in Xenopus laevis oocytes; stoichiometry unknown; with Odorant receptor 65
T7 sequence (Q7QCC7 1-478): T3 sequence (Q7QCC7 1-478)

[8] = biological target: T8, Dmel\Orco (Drosophila melanogaster, UniProt Q9VNB5); experiment: as above; conditions: antagonist vs 30 μM OLC12; homomeric Orco; pH 7.4, -70 mV
T8 construct: homomeric Orco channel, expressed alone in Xenopus laevis oocytes
T8 sequence (Q9VNB5 1-486): T1 sequence (Q9VNB5 1-486)
Text: two-electrode voltage clamp, Xenopus oocytes, single concentration on Dmel\Orco | OX1w inhibition of homomeric Orco channels. Oocytes expressing Dmel\Orco, Cqui\Orco or Agam\Orco

[9] = biological target: T9, Agam\Orco+Agam\Or28 (Anopheles gambiae, UniProt Q7QCC7); experiment: as above; conditions: antagonist vs 40 μM acetophenone (EC50 concentration); allosteric via Orco; pH 7.4, -70 mV
T9 construct: heteromeric OR co-expressed in Xenopus laevis oocytes; stoichiometry unknown; with Odorant receptor 28
T9 sequence (Q7QCC7 1-478): T3 sequence (Q7QCC7 1-478)

[10] = biological target: T10, Agam\Orco+Agam\Or27 (Anopheles gambiae, UniProt Q7QCC7); experiment: as above; conditions: antagonist vs 3 μM L-fenchone (EC50 concentration); allosteric via Orco; pH 7.4, -70 mV
T10 construct: heteromeric OR co-expressed in Xenopus laevis oocytes; stoichiometry unknown; with Odorant receptor 27
T10 sequence (Q7QCC7 1-478): T3 sequence (Q7QCC7 1-478)

[11] = biological target: T11, Agam\Orco+Agam\Or15 (Anopheles gambiae, UniProt Q7QCC7); experiment: as above; conditions: antagonist vs 18 μM acetophenone (EC50 concentration); allosteric via Orco; pH 7.4, -70 mV
T11 construct: heteromeric OR co-expressed in Xenopus laevis oocytes; stoichiometry unknown; with Odorant receptor 15
T11 sequence (Q7QCC7 1-478): T3 sequence (Q7QCC7 1-478)

IC50 [1] | IC50 [2] | % response remaining at 100 μM (normalized to sham) [7] | % response remaining at 100 μM (normalized to sham) [9] | SMILES | % response remaining at 100 μM (normalized to sham) [3] | % response remaining at 100 μM [4] | % response remaining at 100 μM [5] | % response remaining at 100 μM (normalized to sham) [6] | % response remaining at 100 μM [8] | % response remaining at 100 μM (normalized to sham) [10] | % response remaining at 100 μM (normalized to sham) [11]
32 ± 4 µM | 20 ± 3 µM | – | – | O=C(Nc1cc(F)cc(F)c1)c1cccs1 [OX1v, N-(3,5-difluorophenyl)-2-thiophenecarboxamide] | – | – | – | – | – | – | –
57 ± 5 µM | 4 ± 1 µM | 78 ± 5% | 8 ± 1% | O=C(Nc1ccc(F)cc1)c1sccc1Cl [OX1w, 3-chloro-N-(4-fluorophenyl)-2-thiophenecarboxamide] | OX1w was able to inhibit odorant activation of each of the tested ORs | OX1w inhibition of homomeric Orco channels. Oocytes expressing Dmel\Orco, Cqui\Orco or Agam\Orco | OX1w inhibition of homomeric Orco channels. Oocytes expressing Dmel\Orco, Cqui\Orco or Agam\Orco | OX1w was able to inhibit odorant activation of each of the tested ORs | OX1w inhibition of homomeric Orco channels. Oocytes expressing Dmel\Orco, Cqui\Orco or Agam\Orco | OX1w was able to inhibit odorant activation of each of the tested ORs | OX1w was able to inhibit odorant activation of each of the tested ORs
32 ± 6 µM | 15 ± 1 µM | – | – | O=C(Nc1ccc(SC(F)F)cc1)c1cccs1 [OX1x, N-(4-((difluoromethyl)thio)phenyl)-2-thiophenecarboxamide] | – | – | – | – | – | – | –
